Test results as given in ChEMBL document CHEMBL5236659, “Design, synthesis and antitumor activity of novel thiophene- triazine derivatives bearing arylurea unit as potent PI3K/mTOR inhibitorss” (Bioorg Med Chem, 2023).
The source made the active and inactive calls. The calls are words filed in the database; no cut-off is given here.

Columns and labels:
[1] = system: A549; test: Antiproliferative activity against human A549 cells assessed as inhibition of cell growth incubated for 72 hrs by MTT assay; type: functional, cell-based; conditions: A549, 72 h
[2] = Selectivity ratio of IC50 for antiproliferative activity against human A549 cells to IC50 for antiproliferative activity against human NCI-H1975 cells overexpressing EGFR L858R/T790M mutant; type: functional
[3] = molecular target: T1, Phosphatidylinositol 4,5-bisphosphate 3-kinase catalytic subunit alpha isoform (Homo sapiens, UniProt P42336); test: Inhibition of PI3Kalpha (unknown origin) at 1 uM by kinase-glo luminescent assay relative to control
[4] = Selectivity ratio of IC50 for antiproliferative activity against human MCF7 cells to IC50 for antiproliferative activity against human U-87 MG cells; type: functional
[5] = system: NCI-H460; test: Antiproliferative activity against human NCI-H460 cells assessed as inhibition of cell growth incubated for 72 hrs by MTT assay; type: functional, cell-based; conditions: NCI-H460, 72 h
[6] = system: MCF7; test: Antiproliferative activity against human MCF7 cells assessed as inhibition of cell growth incubated for 72 hrs by MTT assay; type: functional, cell-based; conditions: MCF7, 72 h
[7] = Selectivity ratio of IC50 for antiproliferative activity against human HeLa cells to IC50 for antiproliferative activity against paclitaxel-resistant human HeLa cells; type: functional
[8] = molecular target: T2, Serine/threonine-protein kinase mTOR (Homo sapiens, UniProt P42345); test: Inhibition of mTOR (unknown origin) at 1 uM by kinase-glo luminescent assay relative to control
[9] = system: HeLa; test: Antiproliferative activity against paclitaxel-resistant human HeLa cells assessed as inhibition of cell growth incubated for 72 hrs by MTT assay; type: functional, cell-based
[10] = Antiproliferative activity against human U-87 MG cells assessed as inhibition of cell growth incubated for 72 hrs by MTT assay; type: functional, cell-based, U-87MG ATCC
[11] = Antiproliferative activity against human OVCAR-2 cells assessed as inhibition of cell growth incubated for 72 hrs by MTT assay; type: functional, cell-based; conditions: OVCAR-2, 72 h
[12] = system: HeLa; test: Antiproliferative activity against human HeLa cells assessed as inhibition of cell growth incubated for 72 hrs by MTT assay; type: functional, cell-based
[13] = system: NCI-H1975; test: Antiproliferative activity against human NCI-H1975 cells overexpressing EGFR L858R/T790M mutant assessed as inhibition of cell growth incubated for 72 hrs by MTT assay; type: functional, cell-based; conditions: NCI-H1975, 72 h
[14] = molecular target: Epidermal growth factor receptor (Homo sapiens) (UniProt P00533); test: Inhibition of EGFR (unknown origin) at 1 uM by kinase-glo luminescent assay relative to control
[15] = molecular target: T1, Phosphatidylinositol 4,5-bisphosphate 3-kinase catalytic subunit alpha isoform; test: Inhibition of PI3Kalpha (unknown origin) by kinase-glo luminescent assay
[16] = Hemolytic activity in 2% sheep RBC assessed as hemolysis at 16 to 256 ug/ml incubated for 3 hrs; type: toxicity, cell-based, Ovis aries; conditions: erythrocyte, dose 16-256 µg/ml
[17] = system: NCI-H2228; test: Antiproliferative activity against human NCI-H2228 cells assessed as inhibition of cell growth incubated for 72 hrs by MTT assay; type: functional, cell-based
[18] = Cytotoxicity against human L02 cells assessed as inhibition of cell growth incubated for 72 hrs by MTT assay; type: toxicity, cell-based
[19] = molecular target: T1, Phosphatidylinositol 4,5-bisphosphate 3-kinase catalytic subunit alpha isoform; test: Inhibition of PI3Kalpha in human MCF7 cells assessed as decrease in PI3Kalpha gene expression incubated for 24 hrs by fluorescence quantitative PCR assay; type: cell-based; conditions: dose 0.8-1.6 µM
[20] = molecular target: RAC-alpha serine/threonine-protein kinase (Homo sapiens) (UniProt P31749); test: Inhibition of AKT1 (unknown origin) at 1 uM by kinase-glo luminescent assay relative to control
[21] = molecular target: Vascular endothelial growth factor receptor 2 (Homo sapiens) (UniProt P35968); test: Inhibition of KDR (unknown origin) at 1 uM by kinase-glo luminescent assay relative to control
[22] = molecular target: T2, Serine/threonine-protein kinase mTOR; test: Inhibition of mTOR (unknown origin) by kinase-glo luminescent assay
[23] = species on record: Homo sapiens; test: Selectivity index, ratio of IC50 for inhibition of PI3Kalpha (unknown origin) to IC50 for inhibition of mTOR (unknown origin) by kinase glo luminescent assay
[24] = Homo sapiens, NCI-H2228, 72 h, read-out: IC50

T1 sequence (P42336 whole entry, canonical isoform): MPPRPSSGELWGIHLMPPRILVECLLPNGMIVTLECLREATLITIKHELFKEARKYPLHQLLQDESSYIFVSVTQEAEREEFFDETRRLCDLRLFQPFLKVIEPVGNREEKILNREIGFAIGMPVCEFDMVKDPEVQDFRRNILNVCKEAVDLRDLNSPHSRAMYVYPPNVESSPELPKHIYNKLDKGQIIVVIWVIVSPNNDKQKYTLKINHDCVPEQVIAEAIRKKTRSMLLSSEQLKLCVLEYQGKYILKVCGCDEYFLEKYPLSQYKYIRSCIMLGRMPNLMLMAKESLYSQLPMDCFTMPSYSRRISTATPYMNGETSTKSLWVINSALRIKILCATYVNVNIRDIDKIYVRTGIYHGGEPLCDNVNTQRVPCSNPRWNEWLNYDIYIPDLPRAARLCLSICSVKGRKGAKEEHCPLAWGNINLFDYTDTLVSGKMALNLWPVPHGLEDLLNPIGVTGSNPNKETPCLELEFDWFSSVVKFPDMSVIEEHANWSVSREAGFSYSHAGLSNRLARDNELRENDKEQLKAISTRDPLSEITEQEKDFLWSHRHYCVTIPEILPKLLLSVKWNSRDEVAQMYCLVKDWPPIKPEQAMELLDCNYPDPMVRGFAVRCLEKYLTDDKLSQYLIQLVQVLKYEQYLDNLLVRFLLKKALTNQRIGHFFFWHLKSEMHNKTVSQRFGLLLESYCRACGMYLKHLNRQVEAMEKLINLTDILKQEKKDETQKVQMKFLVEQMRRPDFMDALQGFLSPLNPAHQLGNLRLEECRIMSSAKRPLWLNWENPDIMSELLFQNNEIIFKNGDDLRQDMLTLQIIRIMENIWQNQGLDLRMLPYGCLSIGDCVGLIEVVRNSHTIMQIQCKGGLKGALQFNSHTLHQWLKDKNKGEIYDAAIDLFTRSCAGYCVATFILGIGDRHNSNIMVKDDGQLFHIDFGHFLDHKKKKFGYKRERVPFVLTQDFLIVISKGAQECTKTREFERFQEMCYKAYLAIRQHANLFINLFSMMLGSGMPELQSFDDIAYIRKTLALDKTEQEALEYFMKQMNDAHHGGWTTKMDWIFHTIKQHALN
RAC-alpha serine/threonine-protein kinase (Homo sapiens), sequence (P31749 whole entry): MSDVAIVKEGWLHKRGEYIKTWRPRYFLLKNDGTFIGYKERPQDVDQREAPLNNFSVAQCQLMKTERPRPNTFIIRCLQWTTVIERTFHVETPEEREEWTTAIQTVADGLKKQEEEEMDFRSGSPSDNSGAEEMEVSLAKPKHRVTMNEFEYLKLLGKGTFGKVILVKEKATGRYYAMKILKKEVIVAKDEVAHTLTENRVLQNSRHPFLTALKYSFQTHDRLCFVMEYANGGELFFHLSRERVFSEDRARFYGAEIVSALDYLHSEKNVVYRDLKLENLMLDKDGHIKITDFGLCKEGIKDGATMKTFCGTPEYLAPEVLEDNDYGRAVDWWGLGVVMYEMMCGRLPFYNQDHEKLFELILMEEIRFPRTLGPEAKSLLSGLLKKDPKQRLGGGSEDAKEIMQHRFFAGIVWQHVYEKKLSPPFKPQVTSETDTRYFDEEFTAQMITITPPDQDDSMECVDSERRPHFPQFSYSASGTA
Vascular endothelial growth factor receptor 2 (Homo sapiens), sequence (P35968 whole entry): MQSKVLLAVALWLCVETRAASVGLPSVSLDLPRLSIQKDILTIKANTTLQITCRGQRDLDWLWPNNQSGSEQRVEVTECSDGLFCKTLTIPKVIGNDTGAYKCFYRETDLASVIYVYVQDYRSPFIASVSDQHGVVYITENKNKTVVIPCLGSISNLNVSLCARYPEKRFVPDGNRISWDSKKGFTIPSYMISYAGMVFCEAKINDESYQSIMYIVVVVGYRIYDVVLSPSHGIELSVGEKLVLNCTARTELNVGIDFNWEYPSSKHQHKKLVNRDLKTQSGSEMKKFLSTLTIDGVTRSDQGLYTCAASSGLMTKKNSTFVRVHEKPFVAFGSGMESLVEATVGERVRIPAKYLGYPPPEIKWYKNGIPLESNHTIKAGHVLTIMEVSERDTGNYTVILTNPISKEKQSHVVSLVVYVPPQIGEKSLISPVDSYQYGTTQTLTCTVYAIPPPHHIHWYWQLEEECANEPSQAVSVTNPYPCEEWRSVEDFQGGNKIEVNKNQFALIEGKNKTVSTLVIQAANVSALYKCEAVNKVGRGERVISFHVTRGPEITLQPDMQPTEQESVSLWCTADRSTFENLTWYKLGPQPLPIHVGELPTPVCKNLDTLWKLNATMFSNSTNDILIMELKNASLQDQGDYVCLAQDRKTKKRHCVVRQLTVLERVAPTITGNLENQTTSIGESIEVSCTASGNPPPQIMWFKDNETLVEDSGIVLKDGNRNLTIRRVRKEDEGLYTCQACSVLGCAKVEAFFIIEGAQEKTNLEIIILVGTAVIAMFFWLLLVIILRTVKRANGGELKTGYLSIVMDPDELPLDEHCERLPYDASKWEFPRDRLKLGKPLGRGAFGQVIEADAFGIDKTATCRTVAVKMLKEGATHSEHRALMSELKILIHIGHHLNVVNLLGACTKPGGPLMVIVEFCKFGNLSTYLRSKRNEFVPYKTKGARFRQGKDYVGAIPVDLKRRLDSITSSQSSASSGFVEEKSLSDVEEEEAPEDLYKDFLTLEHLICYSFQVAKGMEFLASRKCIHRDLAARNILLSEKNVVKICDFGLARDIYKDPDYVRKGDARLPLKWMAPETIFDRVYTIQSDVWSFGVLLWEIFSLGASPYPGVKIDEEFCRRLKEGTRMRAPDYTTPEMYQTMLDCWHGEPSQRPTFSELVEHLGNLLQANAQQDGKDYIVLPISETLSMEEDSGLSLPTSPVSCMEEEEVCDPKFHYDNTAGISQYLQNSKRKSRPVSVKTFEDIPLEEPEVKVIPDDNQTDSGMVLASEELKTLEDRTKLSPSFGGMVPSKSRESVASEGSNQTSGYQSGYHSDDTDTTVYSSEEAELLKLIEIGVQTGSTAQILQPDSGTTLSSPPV
Epidermal growth factor receptor (Homo sapiens), sequence (P00533 whole entry, canonical isoform): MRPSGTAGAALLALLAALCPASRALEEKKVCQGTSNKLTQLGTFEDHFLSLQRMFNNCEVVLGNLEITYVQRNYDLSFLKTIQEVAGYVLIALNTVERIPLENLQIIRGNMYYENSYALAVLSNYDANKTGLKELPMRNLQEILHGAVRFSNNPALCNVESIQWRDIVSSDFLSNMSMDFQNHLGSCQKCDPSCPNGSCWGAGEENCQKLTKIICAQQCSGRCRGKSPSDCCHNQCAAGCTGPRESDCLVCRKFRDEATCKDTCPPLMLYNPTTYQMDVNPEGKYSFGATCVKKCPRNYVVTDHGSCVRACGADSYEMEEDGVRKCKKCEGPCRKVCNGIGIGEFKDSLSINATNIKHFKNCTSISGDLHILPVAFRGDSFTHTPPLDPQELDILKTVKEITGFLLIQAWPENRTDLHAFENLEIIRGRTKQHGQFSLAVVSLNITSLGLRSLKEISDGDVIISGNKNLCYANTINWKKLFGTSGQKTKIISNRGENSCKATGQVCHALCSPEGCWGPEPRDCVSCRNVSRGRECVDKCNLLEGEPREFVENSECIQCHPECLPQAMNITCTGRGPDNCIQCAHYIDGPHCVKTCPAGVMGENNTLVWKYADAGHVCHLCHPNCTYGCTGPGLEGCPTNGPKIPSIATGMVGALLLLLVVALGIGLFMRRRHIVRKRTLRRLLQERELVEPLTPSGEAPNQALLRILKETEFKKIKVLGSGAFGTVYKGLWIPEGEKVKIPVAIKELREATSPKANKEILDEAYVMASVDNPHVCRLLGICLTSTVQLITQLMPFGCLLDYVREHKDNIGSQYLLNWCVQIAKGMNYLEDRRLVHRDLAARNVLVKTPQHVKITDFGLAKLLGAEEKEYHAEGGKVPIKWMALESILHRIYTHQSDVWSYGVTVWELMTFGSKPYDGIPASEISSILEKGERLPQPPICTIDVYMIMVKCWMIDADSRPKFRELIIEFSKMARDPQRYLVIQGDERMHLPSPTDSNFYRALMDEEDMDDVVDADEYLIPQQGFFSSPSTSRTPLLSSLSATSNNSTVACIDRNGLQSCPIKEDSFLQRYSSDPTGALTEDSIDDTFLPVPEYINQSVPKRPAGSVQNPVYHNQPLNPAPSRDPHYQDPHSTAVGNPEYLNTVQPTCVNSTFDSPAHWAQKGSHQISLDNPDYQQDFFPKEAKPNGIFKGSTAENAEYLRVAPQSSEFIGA

SMILES | IC50 [1] | Ratio IC50 [2] | inhibition [3] | Ratio IC50 [4] | IC50 [5] | IC50 [6] | Ratio IC50 [7] | inhibition [8] | IC50 [9] | IC50 [10] | IC50 [11] | IC50 [12] | IC50 [13] | IC50 [15] | other results
CS(=O)(=O)N1CCN(Cc2ccc(-c3nc(-c4ccc(NC(=O)Nc5nc[nH]n5)cc4)nc(N4CCOCC4)n3)s2)CC1 | 13.2 µM | 0.59 | 94.5% | 0.71 | > 100 µM | 13 µM | 1.19 | 97.3% | 21.4 µM | 18.2 µM | 12.3 µM | 25.5 µM | 22.5 µM | – | –
CS(=O)(=O)N1CCN(Cc2ccc(-c3nc(-c4ccc(NC(=O)NN5CCOCC5)cc4)nc(N4CCOCC4)n3)s2)CC1 | 20.5 µM | 186.72 | – | 0.34 | > 100 µM | 9.11 µM | 1.38 | – | 22.6 µM | 26.9 µM | 15.9 µM | 31.2 µM | 0.11 µM | – | –
CS(=O)(=O)N1CCN(Cc2ccc(-c3nc(-c4ccc(NC(=O)Nc5ccncc5)cc4)nc(N4CCOCC4)n3)s2)CC1 | 0.47 µM | – | 88.2% | – | 2.31 µM | 0.3 µM | – | – | 0.37 µM | 1.25 µM | 0.25 µM | 1.04 µM | 0.008 µM | 0.177 µM | inhibition [14]: 6.24%; Activity [16]: Non-Toxic; IC50 [17, 24]: 0.22 µM; IC50 at 72 h [18]: > 100 µM; inhibition [19]: Dose-Dependent Effect; inhibition [20]: 18.2%; inhibition [21]: 1.74%
CS(=O)(=O)N1CCN(Cc2ccc(-c3nc(-c4ccc(NC(=O)Nn5cnnc5)cc4)nc(N4CCOCC4)n3)s2)CC1 | 50.4 µM | – | 46.8% | – | > 100 µM | 1.82 µM | – | – | > 100 µM | > 100 µM | 26.9 µM | 42.8 µM | > 100 µM | 1.74 µM | –
CS(=O)(=O)N1CCN(Cc2ccc(-c3nc(-c4ccc(NC(=O)Nc5ncc[nH]5)cc4)nc(N4CCOCC4)n3)s2)CC1 | 48.9 µM | – | 47.7% | – | 14.3 µM | 20.1 µM | – | – | 38.5 µM | > 100 µM | 22.6 µM | 7.58 µM | > 100 µM | 1.79 µM | IC50 ([17]; nci-h2228): Not Active
CS(=O)(=O)N1CCN(Cc2ccc(-c3nc(-c4ccc(NC(=O)Nc5cnccn5)cc4)nc(N4CCOCC4)n3)s2)CC1 | 7.08 µM | 0.86 | 20.6% | – | 25.4 µM | 5.87 µM | 912.5 | 76.6% | 0.021 µM | > 100 µM | 15.8 µM | 18.2 µM | 8.22 µM | 2.36 µM | IC50 [17, 24]: 10.3 µM; IC50 [22]: 0.16 µM; Ratio IC50 [23]: 14.7
Cn1nccc1NC(=O)Nc1ccc(-c2nc(-c3ccc(CN4CCN(S(C)(=O)=O)CC4)s3)nc(N3CCOCC3)n2)cc1 | 16.4 µM | 1.67 | 47.5% | 0.048 | 10.6 µM | 0.42 µM | 1.43 | 72.7% | 31.7 µM | 8.61 µM | 15.9 µM | 45.1 µM | 9.87 µM | 1.33 µM | IC50 [22]: 0.571 µM; Ratio IC50 [23]: 2.33
Cn1ccnc1NC(=O)Nc1ccc(-c2nc(-c3ccc(CN4CCN(S(C)(=O)=O)CC4)s3)nc(N3CCOCC3)n2)cc1 | 53.9 µM | – | – | – | > 100 µM | > 100 µM | – | – | > 100 µM | > 100 µM | – | 13.8 µM | 7.86 µM | – | –
CS(=O)(=O)N1CCN(Cc2ccc(-c3nc(-c4ccc(NC(=O)Nc5cncnc5)cc4)nc(N4CCOCC4)n3)s2)CC1 | 10.8 µM | 1.59 | – | 0.51 | > 100 µM | 7.61 µM | 0.54 | – | 28 µM | 14.9 µM | 20.1 µM | 15 µM | 6.78 µM | – | –
CS(=O)(=O)N1CCN(Cc2ccc(-c3nc(-c4ccc(NC(=O)Nc5ccc6[nH]ncc6c5)cc4)nc(N4CCOCC4)n3)s2)CC1 | 14.2 µM | 0.46 | 93% | 0.007 | 20.5 µM | 0.11 µM | 0.2 | 96.4% | 10.5 µM | 15.1 µM | 12.6 µM | 2.14 µM | 31.2 µM | – | –
CS(=O)(=O)N1CCN(Cc2cc3nc(-c4cccc5[nH]ncc45)nc(N4CCOCC4)c3s2)CC1 [PICTILISIB] | 1.03 µM | – | 97.8% | – | 2.68 µM | 1.2 µM | – | 90.6% | 2.97 µM | 3.13 µM | 1.25 µM | 3.15 µM | 2.42 µM | – | inhibition [14]: inactive; IC50 [17, 24]: 1.07 µM; inhibition [20]: inactive; inhibition [21]: inactive
CS(=O)(=O)N1CCN(Cc2ccc(-c3nc(-c4ccc(NC(=O)Nc5ccncn5)cc4)nc(N4CCOCC4)n3)s2)CC1 | 44.9 µM | 8.12 | 43.4% | 1.21 | > 100 µM | 30.7 µM | – | 86.8% | > 100 µM | 25.2 µM | > 100 µM | 28.2 µM | 5.53 µM | – | –
Cn1ccc(NC(=O)Nc2ccc(-c3nc(-c4ccc(CN5CCN(S(C)(=O)=O)CC5)s4)nc(N4CCOCC4)n3)cc2)n1 | 0.11 µM | – | 80.1% | – | 3.21 µM | 1.05 µM | – | – | 2.07 µM | 0.24 µM | 1.06 µM | 2.36 µM | 0.16 µM | 0.299 µM | inhibition [14]: inactive; IC50 at 72 h [18]: > 100 µM; inhibition [20]: 1.02%; inhibition [21]: inactive
CS(=O)(=O)N1CCN(Cc2ccc(-c3nc(-c4ccc(NC(=O)Nc5ccn[nH]5)cc4)nc(N4CCOCC4)n3)s2)CC1 | 3.62 µM | 0.69 | 87.2% | 0.2 | 11.5 µM | 1.8 µM | 18.7 | 91.1% | 0.23 µM | 8.96 µM | 2.12 µM | 4.3 µM | 5.27 µM | – | inhibition [14]: 10.5%; IC50 at 72 h [18]: > 100 µM; inhibition [20]: 4.03%; inhibition [21]: 1.77%
CS(=O)(=O)N1CCN(Cc2ccc(-c3nc(-c4ccc(NC(=O)Nc5nn[nH]n5)cc4)nc(N4CCOCC4)n3)s2)CC1 | 2.82 µM | – | – | – | > 100 µM | 15.2 µM | – | – | > 100 µM | > 100 µM | > 100 µM | 48.5 µM | > 100 µM | – | –
CS(=O)(=O)N1CCN(Cc2ccc(-c3nc(-c4ccc(NC(=O)NC5CN6CCC5CC6)cc4)nc(N4CCOCC4)n3)s2)CC1 (stereo not drawn) | 2.38 µM | 0.059 | 9% | 0.35 | > 100 µM | 7.46 µM | 0.99 | 17.1% | 17.2 µM | 21.5 µM | 22.9 µM | 17.1 µM | 40.5 µM | 8.97 µM | IC50 [22]: 7.96 µM; Ratio IC50 [23]: 1.13
CS(=O)(=O)N1CCN(Cc2ccc(-c3nc(-c4ccc(NC(=O)Nc5ccccn5)cc4)nc(N4CCOCC4)n3)s2)CC1 | 10.1 µM | – | 16.1% | – | 7.57 µM | 3.34 µM | – | – | 9.27 µM | 10.5 µM | 3.52 µM | 6.01 µM | 0.076 µM | 3 µM | –
CS(=O)(=O)N1CCN(Cc2ccc(-c3nc(-c4ccc(NC(=O)Nc5ncccn5)cc4)nc(N4CCOCC4)n3)s2)CC1 | 13.1 µM | 1.03 | 91.3% | – | 17.9 µM | 12.5 µM | 1.21 | 93% | 12.6 µM | > 100 µM | > 100 µM | 15.2 µM | 12.7 µM | – | –
